The results in this text go back to US8436011B2, “Pyridinopyridinone derivatives, preparation thereof and therapeutic use thereof” (Sanofi, priority 2008, dated 2013).

Like-named read-outs stand apart in the source and are kept apart here.

The target in data set [1] is T1, fusion protein Tel/PDGF-R (PDGF-Rβ kinase domain) in HEK cells (Homo sapiens, UniProt P09619).
T1 construct: the transmembrane and intracellular part of the PDGF-Rβ receptor; N-terminal part of the Tel transcription factor (ETV6); expressed in transfected cells; host or cells: HEK cells (transient transfection); the other entry of the earlier key: ETV6 (P41212, Transcription factor ETV6)
T1 sequence (P09619 with tags, fused parts or gaps): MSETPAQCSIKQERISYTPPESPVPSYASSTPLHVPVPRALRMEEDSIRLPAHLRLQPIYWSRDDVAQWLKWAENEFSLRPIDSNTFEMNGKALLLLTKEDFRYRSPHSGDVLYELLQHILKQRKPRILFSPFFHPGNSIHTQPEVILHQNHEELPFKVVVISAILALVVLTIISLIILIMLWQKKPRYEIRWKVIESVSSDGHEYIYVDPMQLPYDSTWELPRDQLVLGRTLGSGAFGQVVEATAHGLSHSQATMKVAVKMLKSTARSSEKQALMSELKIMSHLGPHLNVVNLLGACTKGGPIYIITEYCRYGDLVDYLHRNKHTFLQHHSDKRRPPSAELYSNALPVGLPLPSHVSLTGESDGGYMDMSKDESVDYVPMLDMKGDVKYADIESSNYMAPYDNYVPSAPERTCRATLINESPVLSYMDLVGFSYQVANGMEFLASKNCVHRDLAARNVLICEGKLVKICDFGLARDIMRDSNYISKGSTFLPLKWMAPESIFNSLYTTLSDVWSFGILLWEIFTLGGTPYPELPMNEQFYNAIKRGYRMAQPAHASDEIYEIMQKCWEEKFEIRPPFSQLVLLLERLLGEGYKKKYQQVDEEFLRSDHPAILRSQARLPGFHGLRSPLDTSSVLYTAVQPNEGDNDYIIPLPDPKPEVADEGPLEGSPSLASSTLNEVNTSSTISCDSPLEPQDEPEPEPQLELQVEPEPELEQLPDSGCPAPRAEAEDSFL
Nature of the data set: Ex vivo activity: plasma of orally treated mice tested on PDGF-R autophosphorylation in HEK Tel/PDGF-R cells (ELISA). The settings on record: HEK293, mouse, po, 30 mg/kg po, read-out: % inhibition of autophosphorylation of PDGFR tyrosine kinase in HEK cells. Set-up: species or system female Balb/c mice. The procedure: Ex vivo activity of the compounds of the invention was measured. These compounds are thus administered orally to female Balb/c mice at a dose of 10, 30 or 100 mg/kg in suspension or in solution in a vehicle such as methylcellulose/Tween and the inhibition of the tyrosine kinase activity is measured in vitro in a cell test, using plasma collected at 15 minutes, 1 hour and 4 hours.
1) Protocol for Administration of the Products to the Mice
The products are prepared in a mortar with 0.5% Tween 80 and 0.6% methylcellulose qs final volume. Depending on the case, preparations of different vehicles may be used: water, mixture of labrasol solutol 5% glucose-water. The suspended or dissolved products are administered by gavage (10 ml/kg) to female Balb/c mice 8 to 15 weeks old.
The animals are then collected at the time given by the protocol (15 min, 1 hour, 4 hours, 16 hours).
The animals are anaesthetized by intraperitoneal injection (10 ml/kg) of a ketamine (0.1 g/kg)-xylazine (20 mg/kg) mixture. […] The blood sample is collected from the vein or the artery using a dry syringe and needle. The blood is immediately transferred into heparin lithium tubes (BD microtainer). Centrifugation for 3 minutes at 12 000 rpm allows recovery of the plasma, on which the biochemical test may be performed after storage by freezing at −20° C.
2) Preparation of the HEK Tel/PDGF-R Cells and Measurement of the Phosphorylation of PDGF-R
In order to detect the ex vivo activity of the products using the mouse plasmas, the HEK cells are transiently transfected beforehand with an expression vector coding for the fusion protein Tel/PDGF-R (fusion protein described previously). After 24 hours of transfection, the cells are deprived of serum overnight and then incubated for 30 minutes with the animal plasmas treated with the products of the invention. The cells are then lysed in RIPA buffer, and detection of the phosphorylation of PDGF-Rβ is then performed via the ELISA technique, using a commercial kit (R&D Systems, DYC1767). The results are expressed as a percentage of inhibition of the autophosphorylation.
In this test of measurement of the ex vivo activity, the effect of the compounds of the invention is quantified by the percentage of inhibition of phosphorylation of the kinase domain of the PDGF-Rβ receptor in HEK cells, induced by the inhibitory activity of the product present in the plasma of the treated animals, as described in the following table: […]
For orientation: In an ELISA, binding on a coated surface is turned into a signal by an enzyme label.

For data set [2], the target named is T2, fusion protein Tel/PDGF-Rβ (BaF3 Tel/PDGF cells) (Homo sapiens, UniProt P09619).
T2 construct: the transmembrane and intracellular part of the PDGF-Rβ receptor; N-terminal part of the Tel transcription factor (ETV6); expressed in transfected cells; host or cells: murine haematopoietic cell line BaF/3; the other entry of the earlier key: ETV6 (P41212, Transcription factor ETV6)
T2 sequence (P09619 with tags, fused parts or gaps): as above
Put plainly: Inhibition of PDGF-Rβ tyrosine kinase activity: proliferation of BaF3 Tel/PDGF cells (CellTiter-Glo, 72 h). Format: cell-based, murine. The note with it: 72 hours incubation, read-out: IC50 (concentration that inhibits 50% of the proliferation of the BaF3 Tel/PDGF cells). As to the method:
Measurement of Inhibition of the Tyrosine Kinase Activity of the PDGF Beta (PDGF-Rβ) (Baf-3 tel/PDGFIRβ) Receptor:
This test consists in evaluating the effects of the compounds on the tyrosine kinase activity of the PDGF beta receptor.
The inhibitory effect of the compounds according to the invention towards the tyrosine kinase activity of the PDGF-R receptor was evaluated on the murine haematopoietic cell line BaF/3 transfected with a plasmid coding for the fusion protein Tel/PDGF-Rβ. This fusion protein is found in chronic myelomonocytic myeloid leukaemias (CMML). It comprises the N-terminal part of the Tel transcription factor and the transmembrane and intracellular part of the PDGF-Rβ receptor. This fusion protein is present in dimerized form (presence of an oligomerization domain in the N-terminal part of Tel) and, as a result, leads to constitutive activity of the kinase domain of PDGF-Rβ. This line BaF3 Tel/PDGF has been described in the literature several times and especially, in detailed manner, in the article by M. Carroll et al., PNAS, 1996, 93, 14845-14850.
The BaF3 Tel/PDGF cells are washed with phosphate buffer and inoculated in 96-well plates, at a density of 5×10^4 cells/ml ([…]), in RPMI 1640 containing 10% FCS, in the presence or absence of the test compounds. After incubation for 72 hours, the viable cells are quantified by measuring the cellular ATP by means of the CellTiter-Glo® kit (Promega, Cat G7571). The cells are treated according to the instructions given by the kit manufacturer, and the luminescence is measured using a Luminoskan (Ascent, Labsystem) with the following parameters: measurement: single; integration time: 1000 ms, lag time: 5 s.
It is thus seen that the compounds according to the invention have inhibitory activity on the tyrosine kinase activity of PDGF-Rβ. This activity is given by the concentration that inhibits 50% of the proliferation of the BaF3 Tel/PDGF cells (IC50).

In the case of `CCn1c(N)c(C(=O)NC)c(=O)c2ccc(-c3ccc(CC(=O)NCCN4CCOCC4)cc3)nc21` [compound 18, 2-amino-1-ethyl-N-methyl-7-(4-{2-[(2-morpholin-4-ylethyl)amino]-2-oxoethyl}phenyl)-4-oxo-1,4-dihydro-1,8-naphthyridine-3-carboxamide], the inhibition – broadly, the percentage by which the read-out fell short of the control – at 30 mg/kg amounted to 55% in data set [1] (plasma collected at 15 min), 62% in data set [1] (plasma collected at 1 h) and 17% in data set [1] (plasma collected at 4 h).

Take `CCN1C[C@H](F)C[C@H]1CNC(=O)Cc1ccc(-c2ccc3c(=O)c(C(=O)NC)c(N)n(CC)c3n2)cc1` [compound 26, 2-amino-1-ethyl-7-{4-[2-({[(2S,4R)-1-ethyl-4-fluoropyrrolidin-2-yl]methyl}-amino)-2-oxoethyl]phenyl}-N-methyl-4-oxo-1,4-dihydro-1,8-naphthyridine-3-carboxamide]: the figures for the inhibition at 30 mg/kg in data set [1] (plasma collected at 15 min), in data set [1] (plasma collected at 1 h) and in data set [1] (plasma collected at 4 h) were 58%, 67% and 20%, respectively.

Turning to `CCn1c(N)c(C(=O)NC)c(=O)c2ccc(-c3ccc(CC(=O)NC[C@H]4CCCN4CCF)cn3)nc21` [compound 29, 2-amino-1-ethyl-7-{5-[2-({[(2R)-1-(2-fluoroethyl)pyrrolidin-2-yl]methyl}-amino)-2-oxoethyl]pyrid-2-yl}-N-methyl-4-oxo-1,4-dihydro-1,8-naphthyridine-3-carboxamide], the IC50 in data set [2] was 35 nM.

`CCn1c(N)c(C(=O)NC)c(=O)c2ccc(-c3ccc(CC(=O)NC[C@H]4CCCN4CC(F)F)cc3)nc21` [compound 31, 2-amino-7-{4-[2-({[(2R)-1-(2,2-difluoroethyl)pyrrolidin-2-yl]methyl}amino)-2-oxoethyl]phenyl}-1-ethyl-N-methyl-4-oxo-1,4-dihydro-1,8-naphthyridine-3-carboxamide]: the inhibition at 30 mg/kg came out at 85% in data set [1] (plasma collected at 15 min), 68% in data set [1] (plasma collected at 1 h) and 42% in data set [1] (plasma collected at 4 h).

For `CCn1c(N)c(C(=O)NC)c(=O)c2ccc(-c3ccc(CC(=O)NC[C@H]4CCCN4CC(F)F)cn3)nc21` [compound 34, 2-amino-7-{5-[2-({[(2R)-1-(2,2-difluoroethyl)pyrrolidin-2-yl]methyl}amino)-2-oxoethyl]pyrid-2-yl}-1-ethyl-N-methyl-4-oxo-1,4-dihydro-1,8-naphthyridine-3-carboxamide], the inhibition at 30 mg/kg in data set [1] (plasma collected at 15 min) was 73%; in data set [1] (plasma collected at 1 h) it was 64%; in data set [1] (plasma collected at 4 h), 58%.

As for `CCn1c(N)c(C(=O)NC)c(=O)c2ccc(-c3ccc(CC(=O)NCCCc4ccccc4)cc3)nc21` [compound 41, 2-amino-1-ethyl-N-methyl-4-oxo-7-(4-{2-oxo-2-[(3-phenylpropyl)amino]-ethyl}phenyl)-1,4-dihydro-1,8-naphthyridine-3-carboxamide], the melting point (usually the temperature, or range, at which the solid turns liquid) amounted to 278 °C. Moreover, the IC50 in data set [2] came to 5.5 nM.

On to `CCN1CCCC1CNC(=O)CCCc1ccc(-c2ccc3c(=O)c(C(=O)NC)c(N)n(CC)c3n2)cc1` (stereo not shown) [compound 47, 2-amino-1-ethyl-7-[4-(4-{[(1-ethylpyrrolidin-2-yl)methyl]amino}-4-oxobutyl)phenyl]-N-methyl-4-oxo-1,4-dihydro-1,8-naphthyridine-3-carboxamide], for which the melting point stood at 230 °C. Also, the IC50 in data set [2] was 48 nM.

On to `CCCNC(=O)c1c(N)n(CC)c2nc(-c3ccc(CC(=O)NCC4CCCN4CC)cc3)ccc2c1=O` (stereo not shown) [compound 48, 2-amino-1-ethyl-7-[4-(2-{[(1-ethylpyrrolidin-2-yl)methyl]amino}-2-oxoethyl)phenyl]-4-oxo-N-propyl-1,4-dihydro-1,8-naphthyridine-3-carboxamide], for which the melting point worked out at 264 °C. In addition, in data set [2], the IC50 stood at 162 nM.
